# Test results: paper PMC3237458, “PEGylation Potentiates the Effectiveness of an Antagonistic Peptide That Targets the EphB4 Receptor with Nanomolar Affinity” (PLoS ONE, 2011)
# “Also recorded” adds a separate entry of the source. Square brackets hold non-standard residues; d marks the D form. Peptide text beside a SMILES is read from it. * marks the point of attachment. Biotin = O=C1N[C@H]2[C@H](CS[C@H]2CCCCC(=O)*)N1; Ahx = NCCCCCC(=O)O
# Columns and labels:
# [1] = target: T1, EphB4-ephrin-B2 binding (Mus musculus, UniProt P54761); test: ELISA inhibition of EphB4-ephrin-B2 binding (ephrin-B2 AP on immobilized EphB4 Fc); details: incubated in conditioned medium for 4 hours before ELISA; Figure 1C
# T1 construct: EphB4 Fc, a soluble dimeric form of the EphB4 extracellular domain fused to Fc; purchased R&D Systems, Minneapolis, MN (EphB4 Fc); ephrin-B2 AP made in house from a GeneHunter plasmid; host or cells: HEK 293T cells for ephrin-B2 AP
# T1 sequence (P54761 16-539 limits assumed): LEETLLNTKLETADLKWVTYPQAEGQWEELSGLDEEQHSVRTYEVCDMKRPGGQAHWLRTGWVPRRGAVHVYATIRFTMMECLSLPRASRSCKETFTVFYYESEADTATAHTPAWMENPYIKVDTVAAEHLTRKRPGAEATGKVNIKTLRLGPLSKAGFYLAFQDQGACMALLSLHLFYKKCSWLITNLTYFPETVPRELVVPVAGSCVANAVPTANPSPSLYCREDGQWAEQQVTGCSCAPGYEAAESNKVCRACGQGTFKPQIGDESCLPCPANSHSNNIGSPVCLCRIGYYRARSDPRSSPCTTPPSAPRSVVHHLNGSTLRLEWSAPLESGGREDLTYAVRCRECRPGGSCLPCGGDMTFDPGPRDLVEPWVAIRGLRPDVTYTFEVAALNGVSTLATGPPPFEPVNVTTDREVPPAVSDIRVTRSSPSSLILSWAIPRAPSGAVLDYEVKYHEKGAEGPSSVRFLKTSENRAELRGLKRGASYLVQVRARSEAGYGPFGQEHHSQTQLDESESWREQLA
# Method: Alkaline phosphatase (AP) fusion proteins were produced by transiently transfecting the mouse EphB4 AP [70] or mouse ephrin-B2 AP plasmids (GeneHunter, Nashville, TN) in HEK 293T cells and growing the cells in serum-free Opti-MEM medium for 2–4 days. If necessary, the culture medium containing the secreted AP protein was concentrated by centrifugation in Amicon 30,000 MW cutoff filters (Millipore, Inc., Temecula, CA). EphB4 and ephrin-B2 AP concentrations were calculated from alkaline phosphatase activity.
# EphB4 Fc (1 µg/ml in TBST) was immobilized in protein A-coated plates and incubated for 3 hours with 0.02 nM ephrin-B2 AP in culture medium diluted in TBST in the presence of different concentrations of TNYL-RAW, TNYL-RAW-Fc, TNYL-RAW-streptavidin and PEG-TNYL-RAW. Bound ephrin-B2 AP was quantified by adding pNPP as the substrate and measuring the absorbance at 405 nm. Alkaline phosphatase activity from wells where human Fc (R&D Systems, Minneapolis, MN) was added instead of EphB4 Fc was subtracted as the background. The binding curves were analyzed using non linear regression and the program Prism (GraphPad Software Inc.).
# [2] = Peptide retention in mouse blood circulation; assay type: in vivo; details: 6 nmoles biotinylated TNYL-RAW IV, 3 mice, serum diluted 1:20, ELISA on EphB4 Fc; Figure 1D
# Method: 2.1 nmoles TNYL-RAW-Fc, 1.5 nmoles TNYL-RAW-streptavidin and 6 nmoles PEG-TNYL-RAW, diluted in 150 µl sterile PBS, were administered to C57BL/6 mice by intravenous or intraperitoneal injection. Blood was collected from each mouse from the orbital sinus at two time points after injection and by cardiac puncture under Avertin anesthesia at a third time point. These experiments were carried out in accordance with the recommendations in the Guide for the Care and Use of Laboratory Animals of the National Institutes of Health. The protocol was approved by the Institutional Animal Care and Use Committee of the Sanford-Burnham Medical Research Institute (Animal Assurance Number: A-3053-1). After collection, the blood was […], and the serum was stored at −20°C. The different forms of TNYL-RAW in the serum were detected by using the same ELISA assays described above for measurements of binding affinity. The absorbance from wells incubated with mouse serum without TNYL-RAW was subtracted as the background and the concentration of TNYL-RAW in the blood was calculated based on a standard curve generated using serum containing known TNYL-RAW concentrations. The half-life of each peptide was estimated by using non linear regression and the program Prism (GraphPad Software Inc.). The area under the curve (AUC) was expressed as % ID•hours/ml (where ID is the initial dose of peptide injected) and calculated by dividing the AUC value obtained using the program Prism by the amount of injected peptide and multiplying by 100.
# [3] = test system: HUVECs and EMCs; test: Capillary-like tube formation on Matrigel; assay type: cell-based; details: HUVECs and EMCs 2:1, Matrigel, 15 hours; TNYL-RAW tested up to 20 µM; Figure 6
# Method: An EMC clone expressing EGFP was generated by transducing EMCs (a kind gift from H. Eid) with a lentiviral construct followed by clonal selection. To generate capillary-like tubes, HUVECs (2.8×10^4), EMCs (7.5×10^4) or a mixture of the two cell types (2.8×10^4 HUVECs and 1.4×10^4 EMCs) were grown for 5 to 20 hours in 24-well tissue culture plates (Corning, Corning, NY) precoated with 80 µl Matrigel (BD Bioscience, San Jose, CA) in Medium 200 or DMEM complete culture medium containing PEG-TNYL-RAW or PEG control. In some experiments, mixed cultures were treated with TNYL-RAW or DMSO control. The cells were then fixed for 15 min in 4% formaldehyde in PBS and photographed under a fluorescence microscope. Tube length was quantified using ImageJ software.
# [4] = test system: Eph receptors; details: cited from earlier work
# Description: (§1) Inhibiting EphB4-ephrin-B2 interaction could therefore be useful for diverse medical applications. […] A 15 amino acid-long EphB4 antagonistic peptide, TNYL-RAW (TNYLFSPNGPIARAW), could represent an alternative to the large EphB4 e ...
# [5] = target: human EphB4; details: human EphB4, isothermal titration calorimetry; cited from earlier work
# Description: as §1
# [6] = target: mouse EphB4; details: mouse EphB4, surface plasmon resonance; cited from earlier work
# Description: as §1
# [7] = target: EphB4-ephrin-B2 binding; details: ELISA assays; read-out: IC50 for inhibition of EphB4-ephrin-B2 binding; cited from earlier work
# Description: An explanation for the discrepancy in the potency of the peptide in biochemical and cell culture assays could be that TNYL-RAW is susceptible to degradation by proteases present in cell culture medium. For example, trypsin-like proteases are l ...
smiles,measurement,setting,value
CC[C@H](C)[C@H](NC(=O)[C@@H]1CCCN1C(=O)CNC(=O)[C@H](CC(N)=O)NC(=O)[C@@H]1CCCN1C(=O)[C@H](CO)NC(=O)[C@H](Cc1ccccc1)NC(=O)[C@H](CC(C)C)NC(=O)[C@H](Cc1ccc(O)cc1)NC(=O)[C@H](CC(N)=O)NC(=O)[C@@H](N)[C@@H](C)O)C(=O)N[C@@H](C)C(=O)N[C@@H](CCCNC(=N)N)C(=O)N[C@@H](C)C(=O)N[C@@H](Cc1c[nH]c2ccccc12)C(=O)NCCCCCC(=O)N[C@@H](CCCCNC(=O)CCCC[C@@H]1SC[C@@H]2NC(=O)N[C@@H]21)C(N)=O [TNYL-RAW] (H-TNYLFSPNGPIARAW[Ahx]K(Biotin)-NH2; N-terminus and C-terminus assumed),Ability to inhibit ephrin-B2-EphB4 interaction after incubation in PC3 cell conditioned medium,[1],abolished the ability of TNYL-RAW to inhibit ephrin-B2-EphB4 interaction
same,Detection in mouse serum 30 min after intravenous administration,[2],could not be detected; also recorded: undetectable
same,Effect on capillary-like tube formation in co-cultures at different concentrations,[3],does not have significant effects; also recorded: does not have a significant effect
same,Selectivity of binding among Eph receptors,[4],selectively binds to EphB4 but not any other Eph receptor
same,Kd,[5],70 nM
same,Kd,[6],3 nM
same,IC50,[7],~15 nM
